Assay: method code SF-HPLC, from DOI: 10.1016/j.bmc.2003.11.030, PMID: 14759727
Settings: pH 7.4

| Compound | logD |
| --- | --- |
| Clc1ccc2[nH]c(NCCc3c[nH]cn3)nc2c1 | 2.31 |
| O=[N+]([O-])c1ccc2[nH]c(NCCc3c[nH]cn3)nc2c1 | 1.81 |
| FC(F)(F)c1ccc2[nH]c(NCCc3c[nH]cn3)nc2c1 | 2.82 |
| CCOC(=O)c1ccc2[nH]c(NCCc3c[nH]cn3)nc2c1 | 2.28 |
| FC(F)(F)c1ccc2[nH]c(NCCCc3c[nH]cn3)nc2c1 | 3.03 |

Same assay, conditions: pH 11.0

| Compound | logD |
| --- | --- |
| c1nc(CCNc2nc3cc4c(cc3[nH]2)OCO4)c[nH]1 | 1.44 |
| CCCCc1ccc2[nH]c(NCCCc3c[nH]cn3)nc2c1 | 3.93 |
| Nc1ccc2[nH]c(NCCc3c[nH]cn3)nc2c1 | 0.01 |
| CNC(=O)c1ccc2[nH]c(NCCc3c[nH]cn3)nc2c1 | 0.48 |
| Cc1ccc2[nH]c(NCCCc3c[nH]cn3)nc2c1 | 2.26 |
| Nc1ccc2[nH]c(NCCCc3c[nH]cn3)nc2c1 | 0.17 |
| CCCCc1ccc2[nH]c(NCCc3c[nH]cn3)nc2c1 | 3.64 |
| c1ccc2[nH]c(NCCCc3cnc[nH]3)nc2c1 | 1.78 |
| c1ccc2[nH]c(NCCc3c[nH]cn3)nc2c1 | 1.49 |
| COc1ccc2[nH]c(NCCc3c[nH]cn3)nc2c1 | 1.43 |
